Series [1] deals with T1, human mPGES-1 (Homo sapiens, UniProt O14684).
T1 construct: made in house
T1 sequence (O14684 1-152): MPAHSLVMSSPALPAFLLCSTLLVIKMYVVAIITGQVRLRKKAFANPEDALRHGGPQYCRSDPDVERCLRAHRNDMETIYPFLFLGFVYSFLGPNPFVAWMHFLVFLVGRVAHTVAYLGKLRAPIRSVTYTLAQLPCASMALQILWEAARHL
The experiment in a line: in vitro inhibitory activity against human mPGES-1 (PGE2 ELISA assay). The series is classed as biochemical. To be noted: for inhibition at 10 µM: read-out: Inhibition (%) at 10 µM; for IC50: human mPGES-1. How it is done:
The above computational predictions were followed by in vitro activity assays for their actual inhibitory activity against human mPGES-1 using an ELISA assay described in our previous reports[32]–[34]. […] Specifically, 15 FDA-approved drugs (see Fig. S1 of the Supporting Information for the molecular structures) were assayed for their inhibitory activity against human mPGES-1.
(§1) The protocol for the protein preparation and in vitro activity assays were the same as described previously[51]–[54]. The enzyme activity assays were performed on ice in 1.5 ml microfuge tubes by using the expressed human or mouse mPGES-1. The reaction mixture contained: 0.2 M Na2HPO4/NaH2PO4, pH 7.2, 10 µL; 0.1 M GSH, 2.5 µL; diluted microsomal enzyme (80 µg/mL), 1 µL; PGH2 (0.31 mM in DMF), 5 µL; 1 µL inhibitor; and H2O in a final reaction volume of 100 µL. PGH2 was stored in dry ice and used to initiate the reaction. Compounds were incubated with the enzyme for 15 min at room temperature before the addition of cold PGH2 ([…]) to initiate the enzyme reaction. After 30 s, 10 µL of SnCl2 (40 mg/mL) in ethanol was added to stop the reaction. The non-enzymatic conversion of PGH2 to PGE2 was performed in the same buffer devoid of enzyme. The reaction mixture was placed on ice until PGE2 production was determined by the PGE2 enzyme immunoassay as described earlier. IC50 values of the inhibitors were calculated by using the GraphPad Prism 7.
Background: In an ELISA, binding on a coated surface is turned into a signal by an enzyme label.

Series [2] in a line: predicted Cmax in human organs from rat organ/plasma ratios. To be noted: 50 mg, from rat organ/plasma ratios [56]. The series is classed as in vivo. From the text:
In addition, the reported ratios of Cmax values in various organs of rat to Cmax in rat plasma, along with the Cmax values in human plasma, were used to predict the Cmax values in the corresponding organs of human corresponding to the Cmax values in human plasma.

For series [3] the following is noted: cited from earlier work.
Series [4] concerns the target T1, human mPGES-1. The experiment in a line: mPGES-1 enzyme activity at various GSH concentrations, Lineweaver-Burk plots. The series is classed as biochemical. The method, then: as §1
For series [5] the following is noted: human, read-out: Cmax (µM) in plasma, cited from earlier work.
The subject of series [6] is mixed COX-1 and COX-2 (COX-1/2). The series is described as follows: COX (ovine/human) inhibitor screening assay, mixed COX-1 and COX-2. To be noted: 100 µM; equal amounts of COX-1 and COX-2. The series is classed as biochemical. From the text:
We used a mixture of equal amounts of purified COX-1 and COX-2 proteins and followed the protocol recommended by the vendor.

The subject of a further series is air-pouch PGE2 level. The experiment in a line: mouse air-pouch model of inflammation (carrageenan), air-pouch PGE2 by ELISA. Format: in vivo. How it is done:
The air-pouch fluid collected from mice were analyzed by ELISA assay for the PGE2 concentrations. GraphPad Prism 7 software (GraphPad Software, La Jolla, CA) was used to perform the one-way analysis of variance (ANOVA) with post hoc tests.
All the animal experiments were conducted in our animal laboratories in the University of Kentucky’s Division of Laboratory Animal Resources (DLAR) facility (PHS assurance number A3336-01; USDA number 61-R-0002; AAALAC, Intl. Unit # 13) following the guidelines and regulations of the AAALAC and National Institutes of Health (NIH). The animal procedure used in this project was approved by the University of Kentucky’s Institutional Animal Care and Use Committee (IACUC). The air-pouch model of inflammation[23],[55] is widely used for determining the in vivo effectiveness of inhibitors of prostaglandin synthesis. Air pouches were produced by duplicate injections of 3 mL of sterile air under the skin on the back of mice. […] The air-pouch fluid samples were analyzed for PGE2 by the same ELISA method used in the in vitro enzyme activity assay mentioned above.
GraphPad Prism 7 software (GraphPad Software, La Jolla, CA) was used to perform the one-way analysis of variance (ANOVA) with post hoc testing, allowing us to examine the significance of the difference in the in vivo activity data between each pair of dose conditions. p < 0.05 was considered statistically significant.

The conditions of series [7]: mouse, in vivo; cited from earlier work.

Where “and” joins values, the source holds several entries; their conditions need not be identical. Identical values can stand only once. Entries after “also recorded” stand apart in the source; their conditions may differ. Like-named read-outs stand apart in the source and are kept apart here.

Broadly, the inhibition is how much of the control response was suppressed. As usually defined, the IC50 is the concentration that gives 50% inhibition. Higher therefore signals lower potency. On to `COc1cc(C)c(/C=C/C(C)=C/C=C/C(C)=C/C(=O)O)c(C)c1C` [Acitretin], for which the inhibition at 10 µM on human mPGES-1 [1] (10 µM, single concentration) was 83%. This molecule also displayed an IC50 against human mPGES-1 [1] of 3.5 ± 1.6 µM.

On to `CC(C)(C)C(=O)OCOP(=O)(COCCn1cnc2c(N)ncnc21)OCOC(=O)C(C)(C)C` [Adefovir Dipivoxil], for which the inhibition at 10 µM on human mPGES-1 [1] (10 µM, single concentration) turned out to be 19%.

`COc1cc2nc(N(C)CCCNC(=O)C3CCCO3)nc(N)c2cc1OC` (stereo not drawn) [Alfuzosin]: the inhibition at 10 µM at human mPGES-1 [1] (10 µM, single concentration) is 22%.

On to `CCCCC[C@H](O)/C=C/[C@H]1[C@H](O)CC(=O)[C@@H]1CCCCCCC(=O)O` [Alprostadil], for which, at human mPGES-1 [1] (10 µM, single concentration), the inhibition at 10 µM is 11%.

For `C=C1/C(=C\C=C2/CCC[C@]3(C)[C@@H]([C@H](C)/C=C/[C@@H](O)C4CC4)CC[C@@H]23)C[C@@H](O)C[C@@H]1O` [Calcipotriene], the inhibition at 10 µM at human mPGES-1 [1] (10 µM, single concentration) was determined as 68%. The molecule also registered an IC50 on human mPGES-1 [1] of 3 ± 1.1 µM.

Turning to `COCC1=C(C(=O)O)N2C(=O)[C@@H](NC(=O)/C(=N\OC)c3csc(N)n3)[C@H]2SC1` [Cefpodoxime], on human mPGES-1 [1] (10 µM, single concentration), the inhibition at 10 µM turned out to be 47%. The molecule also registered an IC50 against human mPGES-1 [1] of 29.7 ± 6.3 µM.

For the molecule `CCCCC[C@H](O)/C=C/[C@H]1[C@H](O)CC(=O)[C@@H]1C/C=C\CCCC(=O)O` [Dinoprostone], at human mPGES-1 [1] (10 µM, single concentration), the inhibition at 10 µM came to 4%.

For the molecule `OCCN(CCO)c1nc(N2CCCCC2)c2nc(N(CCO)CCO)nc(N3CCCCC3)c2n1` [Dipyridamole], on human mPGES-1 [1] (10 µM, single concentration), the inhibition at 10 µM amounted to 36%.

Take `COc1cc2nc(N3CCN(C(=O)C4COc5ccccc5O4)CC3)nc(N)c2cc1OC` (stereo not drawn) [Doxazosin]: the inhibition at 10 µM at human mPGES-1 [1] (10 µM, single concentration) came to 21%.

`C[C@]12CC[C@@H]3c4ccc(OC(=O)N(CCCl)CCCl)cc4CC[C@H]3[C@@H]1CC[C@@H]2OP(=O)(O)O` [Estramustine Phosphate]: the inhibition at 10 µM at human mPGES-1 [1] turned out to be 36%.

Broadly, the Cmax is the maximum level reached in the sampled fluid or tissue. For the molecule `CS(=O)(=O)CCNCc1ccc(-c2ccc3ncnc(Nc4ccc(OCc5cccc(F)c5)c(Cl)c4)c3c2)o1` [Lapatinib], the Cmax in series [2] (read-out: Predicted Cmax (µM) Kidney) was about 1.3 µM; in series [2] (read-out: Predicted Cmax (µM) Lung), about 2 µM; in series [5] (10 mg, GW572016 ditosylate monohydrate oral suspension, ref Bence et al.[38]), 0.019 µM; in series [5] (25 mg, GW572016 ditosylate monohydrate oral suspension, ref Bence et al.[38]), 0.04 µM; in series [5] (50 mg, GW572016 ditosylate monohydrate oral suspension, ref Bence et al.[38]), 0.124 µM; in series [5] (100 mg, GW572016 ditosylate monohydrate oral suspension, ref Bence et al.[38]), 0.213 µM. Besides, the Cmax in series [5] (175 mg, GW572016 ditosylate monohydrate oral suspension, ref Bence et al.[38]) was 0.38 µM; in series [5] (250 mg, GW572016 ditosylate monohydrate oral suspension, ref Bence et al.[38]), 0.546 µM; in series [5] (500 mg, 100-mg and 250-mg tablets, daily oral, ref clinical trial EGF10004) it was 1.76 µM; in series [5] (650 mg, 100-mg and 250-mg tablets, daily oral, ref clinical trial EGF10004), 2.24 µM; in series [5] (900 mg, 100-mg and 250-mg tablets, daily oral, ref clinical trial EGF10004), 2.93 µM; in series [5] (1000 mg, 100-mg and 250-mg tablets, daily oral, ref clinical trial EGF10004), 3.18 µM. Further, the Cmax in series [5] (1250 mg orally once daily, ref clinical trial NCT00477464) is 6.06 µM; in series [5] (1500 mg, 6 pills at 250 mg once oral daily, average of 36 data points from 6 subgroups, ref clinical trial NCT00486954 and NCT01138046) it was 8.6 µM. Moreover, the “dose-limiting toxicity (DLT)” value in series [3] (Phase I dose-escalation, up to 7000 mg per day in twice-daily dosing) is given as “no dose-limiting toxicity”. Moreover, the “adverse effects in phase I clinical trials” value in series [3] (non-cancer patients) is “did not cause any serious adverse effects”. Moreover, the “effect on Vmax” value at human mPGES-1 [4] (1 µM lapatinib) is “did not significantly change”. Besides, at human mPGES-1 [4] (1 µM lapatinib, GSH at different concentrations), the “mode of inhibition with respect to GSH” value is on record as “competes with co-factor GSH; also recorded: GSH-competitive inhibitor”. In addition, the “y-intercept of Lineweaver-Burk plot (1/Vmax)” value on human mPGES-1 [4] (in the presence of 1 µM lapatinib (0.15 ± 0.02 in the absence)) was 0.18 ± 0.02. In addition, the “inhibition of COX-1/2” value in series [6] is reported as “did not significantly inhibit”. On human mPGES-1 [1] (10 µM, single concentration), the inhibition at 10 µM amounted to 99%. Moreover, the IC50 at human mPGES-1 [1] was 0.8 µM and ~0.8 µM. For the same molecule, the “effect on air-pouch PGE2 level” value with air-pouch PGE2 level (carrageenan-treated mice, PO, 24 hours) is “significantly and dose-dependently decreased”. Besides, in the series with air-pouch PGE2 level (lapatinib 50 mg/kg PO), the “effectiveness in comparison with celecoxib 50 mg/kg (PO)” value is listed as “less effective”. The “difference in in vivo potency versus 50 mg/kg celecoxib (PO)” value in the series on air-pouch PGE2 level (lapatinib 100 mg/kg PO) is given as “no significant difference”.

In the case of `CC1(C)S[C@@H]2[C@H](NC(=O)COc3ccccc3)C(=O)N2[C@H]1C(=O)O` [Penicillin V Potassium], the inhibition at 10 µM on human mPGES-1 [1] (10 µM, single concentration) came out at 36%.

On to `C[C@]12C=CC(=O)C=C1CC[C@@H]1[C@@H]2[C@@H](O)C[C@@]2(C)[C@H]1CC[C@]2(O)C(=O)CO` [Prednisolone], for which the inhibition at 10 µM on human mPGES-1 [1] (10 µM, single concentration) came out at 44%.

Regarding `Cc1ccccc1C(=O)Nc1ccc(C(=O)N2CCCC(O)c3cc(Cl)ccc32)c(C)c1` (stereo not drawn) [Tolvaptan], the inhibition at 10 µM at human mPGES-1 [1] (10 µM, single concentration) worked out at 52%. The same molecule returned an IC50 against human mPGES-1 [1] of 10.2 ± 2.5 µM.

On to `CCOC(=O)[C@H](CCc1ccccc1)N[C@@H](C)C(=O)N1[C@H](C(=O)O)C[C@H]2CCCC[C@@H]21` [Trandolapril], for which the inhibition at 10 µM on human mPGES-1 [1] (10 µM, single concentration) came out at 54%. This molecule yielded a half-inhibitory concentration (IC50) on human mPGES-1 [1] of 9 ± 2.3 µM.

Take `Cc1ccc(-c2cc(C(F)(F)F)nn2-c2ccc(S(N)(=O)=O)cc2)cc1` [celecoxib]: in series [7], the toxicity in mice result is given as “significant toxicity”.

The values are drawn from PMC7311425, “DREAM-in-CDM Approach and Identification of a New Generation of Anti-inflammatory Drugs Targeting mPGES-1” (Scientific Reports, 2020).
